Laboratory results taken from publication PMC9371267 (PLoS Biology, 2022).
Where a chain is given by its changes, count along the chain named.

Columns and labels:
Assay type in all cases: cell-based
GALR2 H102^3.29A mutant = target: T1, GALR2 H102^3.29A mutant (Homo sapiens, UniProt O43603, H102A); experiment: NanoBiT-based Gq activation assay, H102^3.29A; settings: HEK293-A; HEK293A; expression ~WT (1:10); normalized to WT (1:1); mean ± SEM, n = 3; ** p < 0.01 vs expression-matched WT
T1 construct: expressed in transfected cells; host or cells: HEK293A
T1 sequence (O43603 1-387 H102A): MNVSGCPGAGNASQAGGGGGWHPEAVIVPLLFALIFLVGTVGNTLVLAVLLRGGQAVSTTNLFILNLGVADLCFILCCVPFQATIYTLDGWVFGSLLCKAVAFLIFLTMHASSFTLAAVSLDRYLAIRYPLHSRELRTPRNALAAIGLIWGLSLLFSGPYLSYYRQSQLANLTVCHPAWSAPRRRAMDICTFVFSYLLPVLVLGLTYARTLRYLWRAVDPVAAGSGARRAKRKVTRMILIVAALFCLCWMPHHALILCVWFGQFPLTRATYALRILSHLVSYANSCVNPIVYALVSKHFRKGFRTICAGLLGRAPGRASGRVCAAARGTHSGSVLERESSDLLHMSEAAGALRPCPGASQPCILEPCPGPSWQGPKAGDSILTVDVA
Description: (§1) After an incubation for 1 day, the transfected cells were harvested, pelleted with centrifugation, and suspended in 2 mL of Hank’s balanced saline solution containing 0.01% bovine serum albumin (BSA fatty acid–free grade, SERVA) and 5 mM HEPES (pH 7.4) (assay buffer). The cell suspension was dispensed in a white 96-well plate at a volume of 80 μl per well and mixed with 20 μl of 50 μM coelenterazine (custom-synthesized by Amadis Chemical) diluted in the assay buffer. After 2-h incubation at room temperature, the plate was measured for baseline luminescence (SpectraMax L, Molecular Devices). […] Kinetics data points from 5 min to 10 min were averaged and normalized to the initial count and used as a G-protein activation index. The G-protein activation signals were fitted to a 4-parameter sigmoidal concentration-response curve (GraphPad Prism8), and pEC50 values (negative logarithmic values of EC50 values) and Span values (“Top”–“Bottom”) were obtained. For individual experiments, we calculated Emax by normalizing Span to the WT GALR2 and ΔpEC50 by subtracting pEC50 of the WT GALR2 performed in parallel. We also calculated Emax/EC50 of GALR2 mutants relative to that of GALR2 WT, a dimensionless parameter known as relative intrinsic activity (RAi) and used its log-transformed value (Log RAi) to denote receptor activity.

GALR2 H176^ECL2A mutant = target: T2, GALR2 H176^ECL2A mutant (Homo sapiens, UniProt O43603, H176A); experiment: NanoBiT-based Gq activation assay, H176^ECL2A; settings: HEK293-A; HEK293A; expression ~WT (1:1); normalized to WT (1:1); mean ± SEM, n = 3; ns p > 0.05 vs expression-matched WT
T2 construct: expressed in transfected cells; host or cells: HEK293A
T2 sequence (O43603 1-387 H176A): T1 sequence (O43603 1-387 H102A) with A102H, H176A
Description: as §1

[1] = target: T3, GALR2 R184^5.35×36V mutant (Homo sapiens, UniProt O43603, R184V); experiment: NanoBiT-based Gq activation assay, R184^5.35×36V; settings: HEK293-A; HEK293A; expression ~WT (1:5); normalized to WT (1:1); mean ± SEM, n = 3; ns p > 0.05 vs expression-matched WT
T3 construct: expressed in transfected cells; host or cells: HEK293A
T3 sequence (O43603 1-387 R184V): T1 sequence (O43603 1-387 H102A) with A102H, R184V
Description: as §1

GALR2 L266^ECL3A mutant = target: T4, GALR2 L266^ECL3A mutant (Homo sapiens, UniProt O43603, L266A); experiment: NanoBiT-based Gq activation assay, L266^ECL3A; settings: HEK293-A; HEK293A; expression ~WT (1:1); normalized to WT (1:1); mean ± SEM, n = 3; ns p > 0.05 vs expression-matched WT
T4 construct: expressed in transfected cells; host or cells: HEK293A
T4 sequence (O43603 1-387 L266A): T1 sequence (O43603 1-387 H102A) with A102H, L266A
Description: as §1

[2] = target: T5, GALR2 R274^7.35×34A mutant (Homo sapiens, UniProt O43603, R274A); experiment: NanoBiT-based Gq activation assay, R274^7.35×34A; settings: HEK293-A
T5 construct: expressed in transfected cells; host or cells: HEK293A
T5 sequence (O43603 1-387 R274A): T1 sequence (O43603 1-387 H102A) with A102H, R274A
Description: as §1

SMILES: CC(C)C[C@H](NC(=O)CNC(=O)[C@H](CC(N)=O)NC(=O)[C@H](CCCCN)NC(=O)[C@H](CC(=O)O)NC(=O)[C@H](CO)NC(=O)[C@H](Cc1ccccc1)NC(=O)[C@H](CO)NC(=O)[C@H](CCCNC(=N)N)NC(=O)[C@H](Cc1c[nH]cn1)NC(=O)[C@H](CC(N)=O)NC(=O)CNC(=O)[C@@H](NC(=O)[C@H](C)NC(=O)[C@H](Cc1c[nH]cn1)NC(=O)[C@@H]1CCCN1C(=O)CNC(=O)[C@H](CC(C)C)NC(=O)[C@H](CC(C)C)NC(=O)[C@H](Cc1ccc(O)cc1)NC(=O)CNC(=O)[C@H](C)NC(=O)[C@H](CO)NC(=O)[C@H](CC(N)=O)NC(=O)[C@H](CC(C)C)NC(=O)[C@@H](NC(=O)[C@H](Cc1c[nH]c2ccccc12)NC(=O)CN)[C@@H](C)O)C(C)C)C(=O)N[C@H](C(=O)N[C@@H](CO)C(=O)O)[C@@H](C)O [galanin]
- Emax (GALR2 H102^3.29A mutant): 17.4 ± 2.4%
- Emax (GALR2 H176^ECL2A mutant): 116 ± 3.4%
- Emax [1]: 60 ± 6%
- Emax (GALR2 L266^ECL3A mutant): 90.9 ± 10.5%
- Emax [2]: 74.7 ± 5.9%
